Measured values taken from paper PMC7470127, “Design, synthesis, and evaluation of 1, 4-benzodioxan-substituted chalcones as selective and reversible inhibitors of human monoamine oxidase B” (Journal of Enzyme Inhibition and Medicinal Chemistry, 2020).

Tests used:
[1] = target: T1, hMAO-A (Homo sapiens, UniProt P21397); assay: hMAO inhibition assay (Amplex Red fluorescence), hMAO-A, p-tyramine substrate; type: biochemical; conditions: for IC50: recombinant hMAO-A
T1 sequence (P21397 1-527): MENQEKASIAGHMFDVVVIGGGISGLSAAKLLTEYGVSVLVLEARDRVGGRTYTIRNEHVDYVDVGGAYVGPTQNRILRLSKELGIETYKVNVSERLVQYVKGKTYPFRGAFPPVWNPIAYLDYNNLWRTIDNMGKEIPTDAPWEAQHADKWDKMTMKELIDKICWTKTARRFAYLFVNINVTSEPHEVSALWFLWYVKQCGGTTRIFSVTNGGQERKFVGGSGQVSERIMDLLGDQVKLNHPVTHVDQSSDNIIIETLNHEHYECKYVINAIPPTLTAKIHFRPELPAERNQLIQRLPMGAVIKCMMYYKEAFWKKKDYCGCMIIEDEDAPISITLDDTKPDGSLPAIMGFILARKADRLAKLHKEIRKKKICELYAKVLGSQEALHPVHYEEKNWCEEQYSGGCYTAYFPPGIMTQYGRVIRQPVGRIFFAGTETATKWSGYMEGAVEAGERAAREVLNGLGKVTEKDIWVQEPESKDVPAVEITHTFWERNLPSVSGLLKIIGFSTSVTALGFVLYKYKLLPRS
Protocol: The hMAO inhibition assay was performed as previously described. Adequate amounts of recombinant hMAO-A/B were acquired and adjusted to 12.5 µg/mL or 75 µg/mL for hMAO-A or hMAO-B, respectively, with sodium phosphate buffer (50 mM, pH 7.4). The test compounds were dissolved in DMSO as stock solutions (10 mM) and diluted with sodium phosphate buffer (50 mM, pH 7.4) to the corresponding concentrations. Then the test compounds (20 µL) and hMAO (80 µL) were incubated for 15 min at 37 °C in a flat, black-bottomed 96-well microtest plate in the dark. The reaction was initiated by adding Amplex Red reagent (200 µM, final concentration), horseradish peroxidase (2 U/mL, final concentration), and 2 mM p-tyramine for hMAO-A or 2 mM benzylamine (final concetration) for hMAO-B and incubated at 37 °C for 20 min. Activity was quantified in a multi detection microplate fluorescence reader (SpectraMax M5, Molecular Devices, USA) based on the fluorescence generated (excitation, 545 nm; emission, 590 nm). The specific fluorescence emission was calculated after subtraction of the background activity. The background activity was determined from wells containing all components except the hMAO isoforms, which were replaced by a sodium phosphate buffer solution. The percentage inhibition was calculated by the following expression: (1 – IFi/IFc) × 100, in which IFi and IFc are the fluorescence intensities obtained for hMAO in the presence and absence of inhibitors after subtracting the respective background. […]

[2] = target: T2, hMAO-B (Homo sapiens, UniProt P27338); assay: hMAO inhibition assay (Amplex Red fluorescence), hMAO-B, benzylamine substrate; type: biochemical; conditions: for IC50: recombinant hMAO-B, read-out: hMAO-B IC50; for inhibition at 1 µM: tested concentration 1 µM; for Selectivity Index (SI): SI = IC50 (hMAO-A)/IC50 (hMAO-B); for fold higher inhibitory potency than 4: from IC50, versus compound 4
T2 sequence (P27338 1-520): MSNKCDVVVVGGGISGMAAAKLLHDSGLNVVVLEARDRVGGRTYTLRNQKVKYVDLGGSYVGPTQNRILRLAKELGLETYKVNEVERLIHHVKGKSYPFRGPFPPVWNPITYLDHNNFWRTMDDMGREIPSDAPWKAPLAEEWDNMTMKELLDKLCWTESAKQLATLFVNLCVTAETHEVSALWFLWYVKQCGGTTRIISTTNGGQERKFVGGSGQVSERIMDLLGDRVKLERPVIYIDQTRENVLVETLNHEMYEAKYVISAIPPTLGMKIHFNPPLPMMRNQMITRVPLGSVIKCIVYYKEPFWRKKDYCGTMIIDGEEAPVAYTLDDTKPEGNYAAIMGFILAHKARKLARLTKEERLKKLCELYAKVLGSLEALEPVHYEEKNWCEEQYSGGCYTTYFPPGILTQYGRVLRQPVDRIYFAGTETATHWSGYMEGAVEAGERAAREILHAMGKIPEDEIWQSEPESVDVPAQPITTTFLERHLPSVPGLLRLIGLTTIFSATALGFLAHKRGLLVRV
Protocol: The hMAO inhibition assay was performed as previously described. […] The test compounds were dissolved in DMSO as stock solutions (10 mM) and diluted with sodium phosphate buffer (50 mM, pH 7.4) to the corresponding concentrations. […] The specific fluorescence emission was calculated after subtraction of the background activity. The background activity was determined from wells containing all components except the hMAO isoforms, which were replaced by a sodium phosphate buffer solution. The percentage inhibition was calculated by the following expression: (1 – IFi/IFc) × 100, in which IFi and IFc are the fluorescence intensities obtained for hMAO in the presence and absence of inhibitors after subtracting the respective background.

Structure (SMILES)	IC50 [1]	IC50 [2]	inhibition at 1 µM [2]	Selectivity Index (SI) [2]	fold higher hMAO-B inhibition than 1 ([2]; from IC50, versus compound 1)	melting point	fold higher inhibitory potency than 4 [2]	inhibition at 0.1 µM ([1]; read-out: hMAO-A % inhibition)
O=C(C=Cc1ccccc1)c1ccccc1 [Compound 1, 1,3-diphenyl-2-propen-1-one]	> 40 µM	13040 ± 60 nM						
O=C(/C=C/c1ccc2ccccc2c1)c1ccccc1 [Compound 2, (E)-3-(naphthalen-2-yl)-1-phenylprop-2-en-1-one]	> 40 µM		18.1%					
O=C(/C=C/c1ccc2c(c1)OCO2)c1ccccc1 [Compound 3, (E)-3-(benzo[d][1,3]dioxol-5-yl)-1-phenylprop-2-en-1-one]	> 40 µM		50.8%					
O=C(/C=C/c1ccc2c(c1)OCCO2)c1ccccc1 [Compound 4, (E)-3-(2,3-dihydrobenzo[b][1,4]dioxin-6-yl)-1-phenylprop-2-en-1-one]	> 40 µM		84.9%	>186	55 fold			
O=C(/C=C/c1ccc2c(c1)OCCO2)c1ccccc1O [Compound 5, (E)-3-(2,3-dihydrobenzo[b][1,4]dioxin-6-yl)-1-(2-hydroxyphenyl)prop-2-en-1-one]	> 40 µM	300 ± 20 nM	75%	>133		120.8 to 122.3 °C		
COc1cccc(C(=O)/C=C/c2ccc3c(c2)OCCO3)c1 [Compound 6, (E)-3-(2,3-dihydrobenzo[b][1,4]dioxin-6-yl)-1–(3-methoxyphenyl)prop-2-en-1-one]	> 40 µM	340 ± 10 nM	78%	>118		94.4 to 95.6 °C		
O=C(/C=C/c1ccc2c(c1)OCCO2)c1ccc(O)cc1 [Compound 7, (E)-3–(2,3-dihydrobenzo[b][1,4]dioxin-6-yl)-1-(4-hydroxyphenyl)prop-2-en-1-one]	> 40 µM		26%					
COc1ccc(C(=O)/C=C/c2ccc3c(c2)OCCO3)cc1 [Compound 8, (E)-3–(2,3-dihydrobenzo[b][1,4]dioxin-6-yl)-1-(4-methoxyphenyl)prop-2-en-1-one]	> 40 µM		51.7%			93.8 to 94.9 °C		
O=C(/C=C/c1ccc2c(c1)OCCO2)c1cccc(O)c1 [Compound 9, (E)-3–(2,3-dihydrobenzo[b][1,4]dioxin-6-yl)-1-(3-hydroxyphenyl)prop-2-en-1-one]	> 40 µM	150 ± 7 nM	86.3%	>267		196.8 to 198.5 °C		
O=C(/C=C/c1ccc2c(c1)OCCO2)c1ccc(O)cc1O [Compound 10, (E)-3-(2,3-dihydrobenzo[b][1,4]dioxin-6-yl)-1–(2,4-dihydroxyphenyl)prop-2-en-1-one]	> 40 µM		69.5%			169.5 to 170.8 °C		
C#CCN(C)CCCOc1ccc(Cl)cc1Cl [clorgyline, reference compound]								86.6%

Continued, in another order:

IC50 [1]	IC50 [2]	inhibition at 1 µM [2]	Selectivity Index (SI) [2]	fold higher hMAO-B inhibition than 1 ([2]; from IC50, versus compound 1)	melting point	fold higher inhibitory potency than 4 [2]	Structure (SMILES)	inhibition at 0.1 µM ([1]; read-out: hMAO-A % inhibition)
> 40 µM		22.4%			110 to 111.1 °C		COc1ccc(C(=O)/C=C/c2ccc3c(c2)OCCO3)cc1OC [Compound 11, (E)-3–(2,3-dihydrobenzo[b][1,4]dioxin-6-yl)-1–(3,4-dimethoxyphenyl)prop-2-en-1-one]	
> 40 µM	120 ± 10 nM	89.2%	>333		93.7 to 95.4 °C	1.8–4.1 fold	O=C(/C=C/c1ccc2c(c1)OCCO2)c1ccccc1F [Compound 12, (E)-3–(2,3-dihydrobenzo[b][1,4]dioxin-6-yl)-1-(2-fluorophenyl)prop-2-en-1-one]	
> 40 µM	54 ± 6 nM	92.4%	>741		67.5 to 69.4 °C	1.8–4.1 fold	O=C(/C=C/c1ccc2c(c1)OCCO2)c1ccccc1Cl [Compound 13, (E)-1-(2-chlorophenyl)-3-(2,3-dihydrobenzo[b][1,4]dioxin-6-yl)prop-2-en-1-one]	
> 40 µM	81 ± 4 nM	92.6%	>494		70.3 to 72.2 °C	1.8–4.1 fold	O=C(/C=C/c1ccc2c(c1)OCCO2)c1ccccc1Br [Compound 14, (E)-1-(2-bromophenyl)-3-(2,3-dihydrobenzo[b][1,4]dioxin-6-yl)prop-2-en-1-one]	
> 40 µM	130 ± 7 nM	89.2%	>308			1.7–4 fold	O=C(/C=C/c1ccc2c(c1)OCCO2)c1cccc(F)c1 [Compound 15, (E)-3-(2,3-dihydrobenzo[b][1,4]dioxin-6-yl)-1-(3-fluorophenyl)prop-2-en-1-one]	
> 40 µM		69.9%					O=C(/C=C/c1ccc2c(c1)OCCO2)c1ccc(Cl)cc1 [Compound 18, (E)-1–(4-chlorophenyl)-3–(2,3-dihydrobenzo[b][1,4]dioxin-6-yl)prop-2-en-1-one]	
> 40 µM		68.1%			136.7 to 138.2 °C		O=C(/C=C/c1ccc2c(c1)OCCO2)c1ccc(Br)cc1 [Compound 19, (E)-1–(4-bromophenyl)-3–(2,3-dihydrobenzo[b][1,4]dioxin-6-yl)prop-2-en-1-one]	
> 40 µM	68 ± 7 nM	87.5%	>588		135.5 to 136.5 °C		O=C(/C=C/c1ccc2c(c1)OCCO2)c1ccc(F)cc1 [Compound 20, (E)-3-(2,3-dihydrobenzo[b][1,4]dioxin-6-yl)-1-(4-fluorophenyl)prop-2-en-1-one]	
> 40 µM	230 ± 0.5 nM	76.8%	>174		139 to 140.2 °C		O=C(/C=C/c1ccc2c(c1)OCCO2)c1ccc(C(F)(F)F)cc1 [Compound 21, (E)-3-(2,3-dihydrobenzo[b][1,4]dioxin-6-yl)-1-(4-(trifluoromethyl)phenyl)prop-2-en-1-one]	
> 40 µM	170 ± 20 nM	88.8%	>235		156.6 to 157.9 °C		O=C(/C=C/c1ccc2c(c1)OCCO2)c1ccc(Cl)c(Cl)c1 [Compound 23, (E)-1-(3,4-dichlorophenyl)-3–(2,3-dihydrobenzo[b][1,4]dioxin-6-yl)prop-2-en-1-one]	
> 40 µM	250 ± 30 nM	77.1%	>160		141.8 to 143.7 °C		O=C(/C=C/c1ccc2c(c1)OCCO2)c1cc(Br)ccc1O [Compound 24, (E)-1-(5-bromo-2-hydroxyphenyl)-3-(2,3-dihydrobenzo[b][1,4]dioxin-6-yl)prop-2-en-1-one]	
> 40 µM		57.5%					O=C(/C=C/c1ccc2c(c1)OCO2)c1ccc(Cl)cc1 [Compound 28, (E)-3-(benzo[d][1,3]dioxol-5-yl)-1-(4-chlorophenyl)prop-2-en-1-one]	
